Patent US9102670B2, “Pyrido-, pyrazo- and pyrimido-pyrimidine derivatives as mTOR inhibitors” (KuDOS Pharmaceuticals Limited, priority 2006, dated 2015)

What follows are compounds tested on phosphorylation of Serine 473 in Akt (assay: In Vitro Phospho-Ser473 Akt Assay in MDA-MB-468 cells). Conditions: Homo sapiens, MDA-MB-468, read-out: IC50 values against mTOR, phospho-Ser473 Akt assay, MDA-MB-468 cells.
Format: cell-based

`COc1ccc(-c2ccc3c(N4CCOC[C@@H]4C)nc(N4CCCC(OC)C4)nc3n2)cc1CO` (some centres unmarked) [Example 18aj] and `COc1ccc(-c2ccc3c(N4CCOC[C@@H]4C)nc(N4CCCC(C)C4)nc3n2)cc1CO` (some centres unmarked) [Example 18i] cannot be ordered by IC50: under 300 nM for the first, under 100 nM for the second.

`COc1ccc(-c2ccc3c(N4CCOC[C@@H]4C)nc(N4CCC(C(=O)c5ccc(Cl)cc5)CC4)nc3n2)cc1CO` [Example 18ak] and `COc1ccc(-c2ccc3c(N4CCOC[C@@H]4C)nc(N4CCC(c5ccc(Cl)cc5)CC4)nc3n2)cc1CO` [Example 18aq] cannot be ordered by IC50: under 100 nM for the first, under 300 nM for the second.

`COc1ccc(-c2ccc3c(N4CCOC[C@@H]4C)nc(N4CCC(O)(c5ccccc5)CC4)nc3n2)cc1CO` [Example 18am] and `COc1ccc(-c2ccc3c(N4CCOC[C@@H]4C)nc(N4CCC(C#N)(c5ccccc5)CC4)nc3n2)cc1CO` [Example 18an] cannot be ordered by IC50: under 100 nM for the first, under 100 nM for the second.

`COc1ccc(-c2ccc3c(N4CCOC[C@@H]4C)nc(N4CCCC4C)nc3n2)cc1CO` (some centres unmarked) [Example 18ap] and `COc1ccc(-c2ccc3c(N4CCOC[C@@H]4C)nc(N4CCC[C@@H]4CO)nc3n2)cc1CO` [Example 18cm] cannot be ordered by IC50: under 100 nM for the first, under 100 nM for the second.

`COc1ccc(-c2ccc3c(N4CCOC[C@@H]4C)nc(N4CCCC(c5nc(C)no5)C4)nc3n2)cc1CO` (some centres unmarked) [Example 18ar] and `COc1ccc(-c2ccc3c(N4CCOC[C@@H]4C)nc(N4CCCC(N)C4)nc3n2)cc1CO` (some centres unmarked) [Example 18au] cannot be ordered by IC50: under 100 nM for the first, under 100 nM for the second.

`COc1ccc(-c2ccc3c(N4CCOC[C@@H]4C)nc(N4CCCC(CN(C)C)C4)nc3n2)cc1CO` (some centres unmarked) [Example 18as] and `COc1ccc(-c2ccc3c(N4CCOC[C@@H]4C)nc(N4CCC[C@H](O)C4)nc3n2)cc1CO` [Example 18bj] cannot be ordered by IC50: under 300 nM for the first, under 100 nM for the second.

`COc1ccc(-c2ccc3c(N4CCOC[C@@H]4C)nc(NC(C)CC(C)C)nc3n2)cc1CO` (some centres unmarked) [Example 18av] and `COc1ccc(-c2ccc3c(N4CCOC[C@@H]4C)nc(NC(C)C)nc3n2)cc1CO` [Example 18br] cannot be ordered by IC50: under 300 nM for the first, under 100 nM for the second.

`COc1ccc(-c2ccc3c(N4CCOC[C@@H]4C)nc(NC4CCCC4)nc3n2)cc1CO` [Example 18aw] and `CCNc1nc(N2CCOC[C@@H]2C)c2ccc(-c3ccc(OC)c(CO)c3)nc2n1` [Example 18bq] cannot be ordered by IC50: under 100 nM for the first, under 300 nM for the second.

`COCC(C)Nc1nc(N2CCOC[C@@H]2C)c2ccc(-c3ccc(OC)c(CO)c3)nc2n1` (some centres unmarked) [Example 18ax] and `COC[C@@H](C)Nc1nc(N2CCOC[C@@H]2C)c2ccc(-c3ccc(OC)c(CO)c3)nc2n1` [Example 18bo] cannot be ordered by IC50: under 100 nM for the first, under 100 nM for the second.

`COc1ccc(-c2ccc3c(N4CCOC[C@@H]4C)nc(-n4ccnc4)nc3n2)cc1CO` [Example 18ay] and `COc1ccc(-c2ccc3c(N4CCOC[C@@H]4C)nc(-n4cnc(Br)c4)nc3n2)cc1CO` [Example 18bb] cannot be ordered by IC50: under 300 nM for the first, under 300 nM for the second.

`COc1ccc(-c2ccc3c(N4CCOC[C@@H]4C)nc(-n4cnc(C)c4C=O)nc3n2)cc1CO` [Example 18ba] and `COc1ccc(-c2ccc3c(N4CCOC[C@@H]4C)nc(-n4ccnc4C)nc3n2)cc1CO` [Example 18cn] cannot be ordered by IC50: under 100 nM for the first, under 300 nM for the second.

`COc1ccc(-c2ccc3c(N4CCOC[C@@H]4C)nc(-n4cc(Br)nc4C)nc3n2)cc1CO` [Example 18bc] and `COc1ccc(-c2ccc3c(N4CCOC[C@@H]4C)nc(N4C(C)CCC4C)nc3n2)cc1CO` (some centres unmarked) [Example 18bg] cannot be ordered by IC50: under 300 nM for the first, under 100 nM for the second.

`CCC1CCC(C)N(c2nc(N3CCOC[C@@H]3C)c3ccc(-c4ccc(OC)c(CO)c4)nc3n2)C1` (some centres unmarked) [Example 18bd] and `COc1ccc(-c2ccc3c(N4CCOC[C@@H]4C)nc(N4CC[C@@H](O)C4)nc3n2)cc1CO` [Example 18bn] cannot be ordered by IC50: under 100 nM for the first, under 100 nM for the second.

`COc1ccc(-c2ccc3c(N4CCOC[C@@H]4C)nc(N4CCC(c5ccccc5)CC4)nc3n2)cc1CO` [Example 18be] and `COc1ccc(-c2ccc3c(N4CCOC[C@@H]4C)nc(N4CCC(c5cccc(O)c5)CC4)nc3n2)cc1CO` [Example 18f] cannot be ordered by IC50: under 100 nM for the first, under 100 nM for the second.

`COc1ccc(-c2ccc3c(N4CCOC[C@@H]4C)nc(N4CCOC(c5ccccc5)C4)nc3n2)cc1CO` (some centres unmarked) [Example 18bf] and `COc1ccc(-c2ccc3c(N4CCOC[C@@H]4C)nc(N4CCOc5ccccc54)nc3n2)cc1CO` [Example 18bl] cannot be ordered by IC50: under 300 nM for the first, under 300 nM for the second.

`COc1ccc(-c2ccc3c(N4CCOC[C@@H]4C)nc(N4CCC(c5ccncc5)CC4)nc3n2)cc1CO` [Example 18bi] and `COc1ccc(-c2ccc3c(N4CCOC[C@@H]4C)nc(N4CCC(CCO)CC4)nc3n2)cc1CO` [Example 18g] cannot be ordered by IC50: under 100 nM for the first, under 100 nM for the second.

`COc1ccc(-c2ccc3c(N4CCOC[C@@H]4C)nc(N4CCC[C@@H](O)C4)nc3n2)cc1CO` [Example 18bk] and `COc1ccc(-c2ccc3c(N4CCOC[C@@H]4C)nc(N4CCCC(O)C4)nc3n2)cc1CO` (some centres unmarked) [Example 18k] cannot be ordered by IC50: under 100 nM for the first, under 100 nM for the second.

`COc1ccc(-c2ccc3c(N4CCOC[C@@H]4C)nc(N4CCCCC4CO)nc3n2)cc1CO` (some centres unmarked) [Example 18bm] and `COc1ccc(-c2ccc3c(N4CCOC[C@@H]4C)nc(N4CCCCC(N)C4)nc3n2)cc1CO` (some centres unmarked) [Example 18e] cannot be ordered by IC50: under 100 nM for the first, under 300 nM for the second.

`COc1ccc(-c2ccc3c(N4CCOC[C@@H]4C)nc(NCCF)nc3n2)cc1CO` [Example 18bt] and `COc1ccc(-c2ccc3c(N4CCOC[C@@H]4C)nc(NCC(F)F)nc3n2)cc1CO` [Example 18bz] cannot be ordered by IC50: under 300 nM for the first, under 300 nM for the second.

`COc1ccc(-c2ccc3c(N4CCOC[C@@H]4C)nc(N[C@H](C)CO)nc3n2)cc1CO` [Example 18bw] and `COc1ccc(-c2ccc3c(N4CCOC[C@@H]4C)nc(N[C@@H](C)CO)nc3n2)cc1CO` [Example 18bx] cannot be ordered by IC50: under 100 nM for the first, under 300 nM for the second.

`COc1ccc(-c2ccc3c(N4CCOC[C@@H]4C)nc(N4CCCCC4)nc3n2)cc1CO` [Example 18c] and `COc1ccc(-c2ccc3c(N4CCOC[C@@H]4C)nc(N4CCCCCC4)nc3n2)cc1CO` [Example 18d] cannot be ordered by IC50: under 100 nM for the first, under 100 nM for the second.

`COc1ccc(-c2ccc3c(N4CCOC[C@@H]4C)nc(N4CCNCC4)nc3n2)cc1CO` [Example 18ca] and `COc1ccc(-c2ccc3c(N4CCOC[C@@H]4C)nc(N4CCSCC4)nc3n2)cc1CO` [Example 18ch] cannot be ordered by IC50: under 300 nM for the first, under 100 nM for the second.

`COc1ccc(-c2ccc3c(N4CCOC[C@@H]4C)nc(NC(C)(C)CO)nc3n2)cc1CO` [Example 18cc] and `COc1ccc(-c2ccc3c(N4CCOC[C@@H]4C)nc(NC(CO)CO)nc3n2)cc1CO` [Example 18cd] cannot be ordered by IC50: under 100 nM for the first, under 300 nM for the second.

`COc1ccc(-c2ccc3c(N4CCOC[C@@H]4C)nc(N4CCNC(=O)C4)nc3n2)cc1CO` [Example 18cf] and `COc1ccc(-c2ccc3c(N4CCOC[C@@H]4C)nc(N4CCNC(=O)C4C)nc3n2)cc1CO` (some centres unmarked) [Example 18co] cannot be ordered by IC50: under 100 nM for the first, under 100 nM for the second.

`COc1ccc(-c2ccc3c(N4CCOC[C@@H]4C)nc(N4CCN(C)CC4)nc3n2)cc1CO` [Example 18cg] and `COc1ccc(-c2ccc3c(N4CCOC[C@@H]4C)nc(N4CCCCO4)nc3n2)cc1CO` [Example 18dd] cannot be ordered by IC50: under 300 nM for the first, under 300 nM for the second.

`COCCN(CCOC)c1nc(N2CCOC[C@@H]2C)c2ccc(-c3ccc(OC)c(CO)c3)nc2n1` [Example 18cj] and `COc1ccc(-c2ccc3c(N4CCOC[C@@H]4C)nc(N(CCO)CCO)nc3n2)cc1CO` [Example 18ck] cannot be ordered by IC50: under 100 nM for the first, under 100 nM for the second.

`COc1ccc(-c2ccc3c(N4CCOC[C@@H]4C)nc(N(C)CCO)nc3n2)cc1CO` [Example 18cr] and `COc1ccc(-c2ccc3c(N4CCOC[C@@H]4C)nc(N(CCO)C(C)C)nc3n2)cc1CO` [Example 18cs] cannot be ordered by IC50: under 100 nM for the first, under 100 nM for the second.

`COCCOc1nc(N2CCOC[C@@H]2C)c2ccc(-c3ccc(OC)c(CO)c3)nc2n1` [Example 18cx] and `CNCCOc1nc(N2CCOC[C@@H]2C)c2ccc(-c3ccc(OC)c(CO)c3)nc2n1` [Example 18db] cannot be ordered by IC50: under 300 nM for the first, under 100 nM for the second.

`C[C@@H]1CN(c2nc(N3CCOC[C@@H]3C)c3ccc(-c4ccc(Cl)cc4)nc3n2)C[C@H](C)O1` [Example 18dh] and `C[C@H]1COCCN1c1nc(N2CCOCC2)nc2nc(-c3ccc(Cl)cc3)ccc12` [Example 18di] cannot be ordered by IC50: under 300 nM for the first, under 300 nM for the second.

`COc1ccc(-c2ccc3c(N4CCOC[C@@H]4C)nc(N4CCCC(C(F)(F)F)C4)nc3n2)cc1CO` (some centres unmarked) [Example 18h] and `COc1ccc(-c2ccc3c(N4CCOC[C@@H]4C)nc(Nc4ccccc4)nc3n2)cc1CO` [Example 18m] cannot be ordered by IC50: under 300 nM for the first, under 100 nM for the second.

Same assay, conditions: Homo sapiens, MDA-MB-468, read-out: IC50 values against mTOR, phospho-Ser473 Akt assay, MDA-MB-468 cells, upper bound

`COc1ccc(-c2ccc3c(N4CCOC[C@@H]4C)nc(N4CCC(Cc5ccccc5)CC4)nc3n2)cc1CO` [Example 18al] and `COc1ccc(-c2ccc3c(N4CCOC[C@@H]4C)nc(N4CCCC(c5ccccc5)C4)nc3n2)cc1CO` (some centres unmarked) [Example 18j] cannot be ordered by IC50: under 1000 nM for the first, under 1000 nM for the second.

`COC(=O)c1cncn1-c1nc(N2CCOC[C@@H]2C)c2ccc(-c3ccc(OC)c(CO)c3)nc2n1` [Example 18az] and `CNc1nc(N2CCOC[C@@H]2C)c2ccc(-c3ccc(OC)c(CO)c3)nc2n1` [Example 18bp] cannot be ordered by IC50: under 1000 nM for the first, under 1000 nM for the second.

`COc1ccc(-c2ccc3c(N4CCOC[C@@H]4C)nc(NCCO)nc3n2)cc1CO` [Example 18bs] and `CNCCNc1nc(N2CCOC[C@@H]2C)c2ccc(-c3ccc(OC)c(CO)c3)nc2n1` [Example 18bv] cannot be ordered by IC50: under 1000 nM for the first, under 1000 nM for the second.

`COCCNc1nc(N2CCOC[C@@H]2C)c2ccc(-c3ccc(OC)c(CO)c3)nc2n1` [Example 18by] and `COc1ccc(-c2ccc3c(N4CCOC[C@@H]4C)nc(NCCN(C)C)nc3n2)cc1CO` [Example 18cb] cannot be ordered by IC50: under 1000 nM for the first, under 1000 nM for the second.

`COc1ccc(-c2ccc3c(N4CCOC[C@@H]4C)nc(NC(C)CN(C)C)nc3n2)cc1CO` (some centres unmarked) [Example 18ct] and `CCOc1nc(N2CCOC[C@@H]2C)c2ccc(-c3ccc(OC)c(CO)c3)nc2n1` [Example 18cv] cannot be ordered by IC50: under 1000 nM for the first, under 1000 nM for the second.

`C[C@H]1CCCCN1c1nc(N2CCOC[C@@H]2C)c2ccc(-c3ccc(Cl)cc3)nc2n1` [Example 18de] and `C[C@@H]1CCCCN1c1nc(N2CCOC[C@@H]2C)c2ccc(-c3ccc(Cl)cc3)nc2n1` [Example 18dg] cannot be ordered by IC50: under 1000 nM for the first, under 1000 nM for the second.

`C[C@H]1COCCN1c1nc(N2CCC(C(N)=O)CC2)nc2nc(-c3ccc(Cl)cc3)ccc12` [Example 18dj] and `COc1ccc(-c2ccc3c(N4CCOC[C@@H]4C)nc(Nc4ccncn4)nc3n2)cc1CO` [Example 18n] cannot be ordered by IC50: under 1000 nM for the first, under 1000 nM for the second.
